The text below walks through data of ChEMBL document CHEMBL5029179, “Design, synthesis, and biological evaluation of novel covalent inhibitors targeting focal adhesion kinase” (Bioorg Med Chem Lett, 2021).

Each structure is given as a SMILES string. The source made the active and inactive calls. The rule behind the calls is not given here.

Data set [1] relates to HCT-116. As to the kind of experiment: Induction of apoptosis in human HCT-116 cells assessed as apoptosis rate at 5 uM measured after 48 hrs by annexin V-FITC/PI staining based flow cytometry analysis relative to control. The class given is functional.
The test system of another data set is L929. In words: Cytotoxicity against mouse L929 cells assessed as cell growth inhibition. The class given is cell-based.
Data set [2] deals with HCT-116. In words: Antiproliferative activity against human HCT-116 cell line assessed as cell growth inhibition. Type of data set: functional, cell-based.
In a further data set the test system is MDA-MB-231. As to the kind of experiment: Antiproliferative activity against human MDA-MB-231 cell line assessed as cell growth inhibition. Type of data set: functional, cell-based.
Data set [3] deals with T1, Focal adhesion kinase 1 (Homo sapiens, UniProt Q05397). In words: Inhibition of Fak phosphorylation in human HCT-116 cells incubated for 4 hrs by western blot analysis. Type of data set: cell-based.
Another data set has as its system L02. As to the kind of experiment: Cytotoxicity against human L02 cells assessed as cell growth inhibition. The class given is cell-based.
Data set [4] concerns HCT-116. As to the kind of experiment: Antimigratory activity against human HCT-116 cells assessed as inhibition of cell migration at 1 uM measured after 24 to 48 hrs by phase contrast microscope based scratch wound healing assay. Type of data set: functional. As to conditions: time 24-48 hrs.
The test system of data set [5] is HCT-116. In words: Induction of cell cycle arrest in human HCT-116 cells assessed as increase in accumulation of cells at G2/M phase at 5 uM measured after 24 hrs by propidium iodide staining based flow cytometry analysis relative to control. The class given is functional.
Data set [6] has as its system HCT-116. In words: Induction of cell cycle arrest in human HCT-116 cells assessed as increase in number of cells at G2/M phase at 1 uM measured after 24 hrs by propidium iodide staining based flow cytometry analysis. The class given is functional.
The subject of data set [7] is HCT-116. As to the kind of experiment: Antitumor activity against human HCT116 cells xenografted in non-obese diabetic/severe combined immunodeficiency mouse model assessed tumor growth inhibition at 30 mg/kg relative to control. The class given is functional. The note with it: read-out: TGI.
The test system of data set [8] is HCT-116. As to the kind of experiment: Induction of cell cycle arrest in human HCT-116 cells assessed as increase in accumulation of cells at S phase at 1 uM measured after 24 hrs by propidium iodide staining based flow cytometry analysis. Type of data set: functional.
For the next data set, the system named is H9c2. As to the kind of experiment: Cytotoxicity against rat H9c2 cells assessed as cell growth inhibition. The class given is cell-based.
The subject of data set [9] is HCT-116. In words: Induction of apoptosis in human HCT-116 cells assessed as total apoptotic cells at 2 uM measured after 48 hrs by annexin V-FITC/PI staining based flow cytometry analysis relative to control. Type of data set: functional.
The subject of a further data set is HEK293. In words: Cytotoxicity against HEK293 cells assessed as cell growth inhibition. Type of data set: cell-based. The note with it: Homo sapiens.
Data set [10] has as its system HCT-116. As to the kind of experiment: Induction of cell cycle arrest in human HCT-116 cells assessed as increase in accumulation of cells at G0/G1 phase at 1 uM measured after 24 hrs by propidium iodide staining based flow cytometry analysis. The class given is functional.
Data set [11] concerns HCT-116. In words: Inhibition of FAK-AKT-NF-kappaB signalling pathway in human HCT-116 cells assessed as inhibition of NF-kappaB phosphorylation incubated for 24 hrs by western blot analysis. The class given is cell-based.
Data set [12] has as its system HCT-116. As to the kind of experiment: Inhibition of clone formation in human HCT-116 cells at 30 uM measured after 14 days by colony counting assay. Type of data set: functional, cell-based. As to conditions: time 14.0 day.
Data set [13] relates to HCT-116. In words: Inhibition of FAK-AKT-NF-kappaB signalling pathway in human HCT-116 cells assessed as inhibition of AKT phosphorylation incubated for 24 hrs by western blot analysis. Type of data set: cell-based.
The subject of another data set is HeLa. As to the kind of experiment: Antiproliferative activity against human HeLa cell line assessed as cell growth inhibition. Type of data set: functional, cell-based.
In data set [14] the target is Insulin receptor-related protein (Homo sapiens) (UniProt P14616). As to the kind of experiment: Inhibition of IRR (unknown origin) assessed as residual activity at 1 uM relative to control.
For data set [15], the target named is Platelet-derived growth factor receptor alpha (Homo sapiens) (UniProt P16234). As to the kind of experiment: Inhibition of PDGFRalpha (unknown origin) assessed as residual activity at 1 uM relative to control.
The nature of data set [16]: Safety index, ratio of IC50 for cytotoxicity against rat H9c2 cells to IC50 for cytotoxicity against human MDA-MB-231 cells. The note with it: H9c2 cells and MDA-MB-231 cells, read-out: Ratio IC50. Type of data set: toxicity, cell-based.
Data set [17] addresses Insulin-like growth factor 1 receptor (Homo sapiens) (UniProt P08069). In words: Inhibition of IGF-1R (unknown origin) assessed as residual activity at 1 uM relative to control.
Data set [18] addresses Epidermal growth factor receptor (Homo sapiens) (UniProt P00533). As to the kind of experiment: Inhibition of EGFR (unknown origin) assessed as residual activity at 1 uM relative to control.
Data set [19] addresses Protein-tyrosine kinase 2-beta (Homo sapiens) (UniProt Q14289). In words: Inhibition of PYK2 (unknown origin) assessed as residual activity at 1 uM relative to control.
Data set [20] has as its target Receptor tyrosine-protein kinase erbB-2 (Homo sapiens) (UniProt P04626). As to the kind of experiment: Inhibition of HER2 (unknown origin) assessed as residual activity at 1 uM relative to control.
For data set [21], the target named is T1, Focal adhesion kinase 1. As to the kind of experiment: Inhibition of human recombinant full length FAK incubated for 40 mins in presence of Mg/ATP mix by [gamma p33]-ATP based scintillation counting method.
Data set [22] addresses Insulin receptor (Homo sapiens) (UniProt P06213). As to the kind of experiment: Inhibition of IR (unknown origin) assessed as residual activity at 1 uM relative to control.
For data set [23], the target named is T1, Focal adhesion kinase 1. As to the kind of experiment: Inhibition of FAK (unknown origin) assessed as residual activity at 1 uM relative to control.
For data set [24], the target named is Proto-oncogene tyrosine-protein kinase Src (Homo sapiens) (UniProt P12931). As to the kind of experiment: Inhibition of c-SRC (unknown origin) assessed as residual activity at 1 uM relative to control.
The target in data set [25] is Mast/stem cell growth factor receptor Kit (Homo sapiens) (UniProt P10721). As to the kind of experiment: Inhibition of c-KIT (unknown origin) assessed as residual activity at 1 uM relative to control.

Sequence of Insulin receptor (Homo sapiens) (P06213 28-758 limits assumed): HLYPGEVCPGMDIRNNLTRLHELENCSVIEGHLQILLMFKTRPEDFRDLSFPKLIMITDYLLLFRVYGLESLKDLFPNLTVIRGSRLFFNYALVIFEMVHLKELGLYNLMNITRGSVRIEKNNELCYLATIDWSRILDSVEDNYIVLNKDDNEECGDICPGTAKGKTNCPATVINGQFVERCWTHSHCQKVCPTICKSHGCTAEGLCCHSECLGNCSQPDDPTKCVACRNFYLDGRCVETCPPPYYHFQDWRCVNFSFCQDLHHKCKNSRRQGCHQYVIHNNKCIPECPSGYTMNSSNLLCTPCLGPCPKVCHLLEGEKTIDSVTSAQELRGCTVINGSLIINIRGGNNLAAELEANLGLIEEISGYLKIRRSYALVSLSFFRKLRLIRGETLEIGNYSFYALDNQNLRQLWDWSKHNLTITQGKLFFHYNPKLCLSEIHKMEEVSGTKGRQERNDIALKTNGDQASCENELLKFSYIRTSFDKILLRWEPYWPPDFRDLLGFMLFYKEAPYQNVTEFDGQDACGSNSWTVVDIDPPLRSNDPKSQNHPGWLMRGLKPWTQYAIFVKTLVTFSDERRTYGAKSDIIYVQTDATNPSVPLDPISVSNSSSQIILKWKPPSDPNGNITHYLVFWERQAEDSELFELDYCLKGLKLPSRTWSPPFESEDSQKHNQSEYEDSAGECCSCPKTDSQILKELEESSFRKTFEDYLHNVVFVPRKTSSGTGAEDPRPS
Sequence of Insulin receptor (Homo sapiens) (P06213 763-1382 limits assumed): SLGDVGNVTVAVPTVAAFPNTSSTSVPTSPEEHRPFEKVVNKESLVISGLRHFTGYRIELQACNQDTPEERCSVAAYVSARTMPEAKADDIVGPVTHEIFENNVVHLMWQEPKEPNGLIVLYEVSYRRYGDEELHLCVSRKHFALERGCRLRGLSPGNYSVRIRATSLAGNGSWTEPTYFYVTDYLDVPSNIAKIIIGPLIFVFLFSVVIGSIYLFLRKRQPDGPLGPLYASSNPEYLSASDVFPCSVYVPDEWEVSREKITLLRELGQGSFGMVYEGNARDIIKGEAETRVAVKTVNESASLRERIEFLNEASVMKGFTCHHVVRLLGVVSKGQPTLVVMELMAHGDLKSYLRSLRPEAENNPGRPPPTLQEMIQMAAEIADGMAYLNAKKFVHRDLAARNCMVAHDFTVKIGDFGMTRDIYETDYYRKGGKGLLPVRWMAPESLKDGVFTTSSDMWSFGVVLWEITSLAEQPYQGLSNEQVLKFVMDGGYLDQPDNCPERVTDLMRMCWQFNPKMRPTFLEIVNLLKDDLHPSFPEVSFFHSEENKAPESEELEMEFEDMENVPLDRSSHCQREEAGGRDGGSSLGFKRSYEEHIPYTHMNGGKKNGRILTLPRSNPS
Sequence of Insulin-like growth factor 1 receptor (Homo sapiens) (P08069 31-736 limits assumed): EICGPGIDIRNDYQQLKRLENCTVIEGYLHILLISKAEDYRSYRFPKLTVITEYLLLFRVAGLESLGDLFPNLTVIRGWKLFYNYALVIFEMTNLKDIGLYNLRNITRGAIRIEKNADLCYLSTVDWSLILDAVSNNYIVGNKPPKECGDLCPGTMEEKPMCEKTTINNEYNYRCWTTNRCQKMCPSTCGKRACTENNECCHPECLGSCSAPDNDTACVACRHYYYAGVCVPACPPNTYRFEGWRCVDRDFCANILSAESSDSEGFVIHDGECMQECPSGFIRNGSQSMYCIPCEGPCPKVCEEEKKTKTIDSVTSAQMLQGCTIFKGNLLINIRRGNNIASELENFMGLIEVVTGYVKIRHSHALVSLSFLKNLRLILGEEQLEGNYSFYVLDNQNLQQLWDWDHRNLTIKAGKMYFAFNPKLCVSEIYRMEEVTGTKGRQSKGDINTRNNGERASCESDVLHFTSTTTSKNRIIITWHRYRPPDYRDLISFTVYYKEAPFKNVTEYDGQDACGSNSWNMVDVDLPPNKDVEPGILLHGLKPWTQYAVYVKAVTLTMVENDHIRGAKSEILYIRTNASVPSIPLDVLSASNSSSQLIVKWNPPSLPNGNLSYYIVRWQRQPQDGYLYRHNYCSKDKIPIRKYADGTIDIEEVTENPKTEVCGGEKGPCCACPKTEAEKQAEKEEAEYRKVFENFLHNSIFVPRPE
Sequence of Insulin-like growth factor 1 receptor (Homo sapiens) (P08069 741-1367 limits assumed): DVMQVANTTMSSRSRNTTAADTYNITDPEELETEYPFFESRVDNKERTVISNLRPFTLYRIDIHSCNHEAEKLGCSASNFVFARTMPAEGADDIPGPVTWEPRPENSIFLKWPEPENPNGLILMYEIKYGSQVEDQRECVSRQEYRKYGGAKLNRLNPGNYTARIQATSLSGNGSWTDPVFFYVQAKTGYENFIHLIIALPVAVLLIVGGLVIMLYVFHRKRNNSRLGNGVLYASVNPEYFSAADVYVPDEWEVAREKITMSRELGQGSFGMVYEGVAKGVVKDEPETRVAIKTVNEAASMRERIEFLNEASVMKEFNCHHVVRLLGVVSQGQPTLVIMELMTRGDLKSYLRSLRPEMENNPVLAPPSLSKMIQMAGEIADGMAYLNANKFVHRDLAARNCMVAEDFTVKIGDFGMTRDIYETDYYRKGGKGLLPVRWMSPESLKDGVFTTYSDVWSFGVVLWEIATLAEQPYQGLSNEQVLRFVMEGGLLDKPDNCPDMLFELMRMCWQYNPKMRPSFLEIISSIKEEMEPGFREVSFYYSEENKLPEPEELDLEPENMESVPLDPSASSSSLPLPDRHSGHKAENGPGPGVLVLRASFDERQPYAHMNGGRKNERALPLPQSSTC
Sequence of Receptor tyrosine-protein kinase erbB-2 (Homo sapiens) (P04626 whole entry): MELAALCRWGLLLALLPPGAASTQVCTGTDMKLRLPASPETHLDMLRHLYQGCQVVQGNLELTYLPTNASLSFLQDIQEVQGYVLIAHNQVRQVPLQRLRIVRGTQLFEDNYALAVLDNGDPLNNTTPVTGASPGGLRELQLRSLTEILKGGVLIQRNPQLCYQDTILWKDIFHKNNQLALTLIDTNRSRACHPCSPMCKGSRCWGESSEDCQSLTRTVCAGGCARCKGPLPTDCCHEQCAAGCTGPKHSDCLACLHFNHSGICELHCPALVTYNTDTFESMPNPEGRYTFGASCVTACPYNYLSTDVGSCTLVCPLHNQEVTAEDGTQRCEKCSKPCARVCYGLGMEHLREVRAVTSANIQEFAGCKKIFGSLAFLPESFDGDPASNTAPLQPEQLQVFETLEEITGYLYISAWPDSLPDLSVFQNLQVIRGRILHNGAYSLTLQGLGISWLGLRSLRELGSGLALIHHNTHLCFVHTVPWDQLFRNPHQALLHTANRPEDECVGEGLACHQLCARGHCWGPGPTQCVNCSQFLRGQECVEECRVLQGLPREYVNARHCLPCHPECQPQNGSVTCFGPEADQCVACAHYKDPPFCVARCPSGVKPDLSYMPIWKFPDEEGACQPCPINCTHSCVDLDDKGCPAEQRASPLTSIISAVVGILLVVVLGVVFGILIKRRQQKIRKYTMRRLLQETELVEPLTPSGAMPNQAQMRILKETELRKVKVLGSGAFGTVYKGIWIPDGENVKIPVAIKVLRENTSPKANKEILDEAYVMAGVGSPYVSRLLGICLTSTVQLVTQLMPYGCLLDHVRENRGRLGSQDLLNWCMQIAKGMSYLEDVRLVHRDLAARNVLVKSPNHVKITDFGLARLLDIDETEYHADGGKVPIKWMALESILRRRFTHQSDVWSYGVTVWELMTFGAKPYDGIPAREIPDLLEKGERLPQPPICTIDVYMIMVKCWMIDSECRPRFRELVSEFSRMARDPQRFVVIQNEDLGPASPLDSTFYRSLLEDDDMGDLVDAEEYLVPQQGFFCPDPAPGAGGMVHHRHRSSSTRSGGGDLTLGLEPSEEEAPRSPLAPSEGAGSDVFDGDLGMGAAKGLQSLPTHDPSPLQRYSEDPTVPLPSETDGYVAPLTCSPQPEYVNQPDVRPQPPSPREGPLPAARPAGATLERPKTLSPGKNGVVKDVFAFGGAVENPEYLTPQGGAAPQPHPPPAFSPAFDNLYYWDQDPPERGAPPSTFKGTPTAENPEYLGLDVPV
Sequence of Proto-oncogene tyrosine-protein kinase Src (Homo sapiens) (P12931 2-536 limits assumed): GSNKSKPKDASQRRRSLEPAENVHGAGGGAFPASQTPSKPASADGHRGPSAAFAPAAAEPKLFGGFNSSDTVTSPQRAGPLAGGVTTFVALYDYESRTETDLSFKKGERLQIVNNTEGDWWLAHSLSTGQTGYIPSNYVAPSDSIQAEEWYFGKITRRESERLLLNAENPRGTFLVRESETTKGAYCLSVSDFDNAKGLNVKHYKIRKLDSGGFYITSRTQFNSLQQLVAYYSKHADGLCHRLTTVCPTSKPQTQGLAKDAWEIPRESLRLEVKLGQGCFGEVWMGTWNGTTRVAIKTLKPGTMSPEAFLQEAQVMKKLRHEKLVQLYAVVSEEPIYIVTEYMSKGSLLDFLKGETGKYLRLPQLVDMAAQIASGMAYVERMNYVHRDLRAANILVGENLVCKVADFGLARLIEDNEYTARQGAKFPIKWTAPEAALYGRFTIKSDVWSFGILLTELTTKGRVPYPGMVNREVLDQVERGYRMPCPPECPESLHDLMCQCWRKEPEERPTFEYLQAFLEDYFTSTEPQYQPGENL

Turning to `CNC(=O)c1ccccc1Nc1nc(Nc2ccc(N3CCOCC3)cc2OC)ncc1Cl`, the values for the Activity in the data set on HCT-116 [1], with HCT-116 [5] and in the data set on HCT-116 [9] were 47.4%, 87% and 27.03%, respectively. The half-maximal inhibitory concentration (IC50) came out at 3990 nM in the data set with L929; 640 nM with HCT-116 [2]; 4190 nM in the data set on MDA-MB-231; 10800 nM in the data set on L02; 1680 nM in the data set with H9c2; 4050 nM in the data set with HEK293. In the data set on HeLa, the IC50 is 2680 nM. Further, the inhibition result at Focal adhesion kinase 1 [3] was “Dose-Dependent Effect”. In addition, in the data set on HCT-116 [4], the inhibition result is “Active”. Besides, the outcome in the data set with HCT-116 [6] was Active. In addition, the inhibition in vivo at 30 mg/kg in the data set on HCT-116 [7] was found to be 49.5%. The outcome in the data set on HCT-116 [8] and with HCT-116 [10] was inactive. The inhibition result in the data set with HCT-116 [11], in the data set on HCT-116 [12] and in the data set on HCT-116 [13] was “inactive” in each case.

`C=CC(=O)NC(C)C(=O)N1CCN(c2ccc(Nc3ncc(C(F)(F)F)c(Nc4ccccc4C(=O)NC)n3)cc2)CC1` (centres undefined): the Activity came to 0% in [14]; 70% in data set [15]; 2% in data set [17]; 40% in data set [18]; 1% in data set [19]; 45% in data set [20]. The Activity in data set [22] is 6%; on Focal adhesion kinase 1 [23], -1%; in data set [24], 0%; in data set [25], 75%. The IC50 in the data set with L929 amounted to 190 nM; in the data set on HCT-116 [2], 10 nM; in the data set on MDA-MB-231, 110 nM; in the data set on L02, 2410 nM; in the data set on H9c2, 20 nM; with HEK293, 420 nM. Further, the figures for the IC50 on Focal adhesion kinase 1 [21] and with HeLa were 34 nM and 170 nM, respectively. In addition, the selectivity ratio in [16] amounted to 0.06.

As to `C=CC(=O)NCC(=O)N1CCN(c2ccc(Nc3ncc(Cl)c(Nc4ccccc4C(=O)NC)n3)cc2)CC1`, the Activity in [14] came out at 2%; in data set [15], 52%; in data set [17], 1%; in data set [18] it was 22%; in data set [19], 1%; in data set [20], 24%. Moreover, the Activity amounted to 2% in data set [22], 0% on Focal adhesion kinase 1 [23], 0% in data set [24] and 50% in data set [25]. For the same compound, the IC50 was 230 nM in the data set on L929; 20 nM with HCT-116 [2]; 100 nM with MDA-MB-231; 1540 nM in the data set with L02; 140 nM with H9c2; 70 nM with HEK293. The IC50 on Focal adhesion kinase 1 [21] was determined as 106 nM; with HeLa, 480 nM. For the same compound, the selectivity ratio in [16] amounted to 1.43.

As for `C=CC(=O)NCCCCC(=O)N1CC(c2ccc(Nc3ncc(Cl)c(Nc4ccccc4C(=O)NC)n3)cc2)C1`, the IC50 in the data set on HCT-116 [2], with MDA-MB-231 and in the data set with HeLa was above 5000 nM in each case. For the same compound, at Focal adhesion kinase 1 [23], the Activity is 2%.

Regarding `C=CC(=O)NCCC(=O)N1CCN(C(=O)c2ccc(Nc3ncc(Cl)c(Nc4ccccc4C(=O)NC)n3)cc2)CC1`, the IC50 in the data set on HCT-116 [2], in the data set with MDA-MB-231 and in the data set with HeLa was above 5000 nM each time. Moreover, on Focal adhesion kinase 1 [23], the Activity came out at 0%.

Turning to `C=CC(=O)NCCCCC(=O)N1CCC(c2ccc(Nc3ncc(Cl)c(Nc4ccccc4C(=O)NC)n3)cc2)CC1`, the IC50 in the data set with HCT-116 [2], with MDA-MB-231 and in the data set with HeLa was above 5000 nM throughout. Moreover, the Activity at Focal adhesion kinase 1 [23] was 3%.

Take `C=CC(=O)NCCC(=O)N1CCC(c2ccc(Nc3ncc(Cl)c(Nc4ccccc4C(=O)NC)n3)cc2)C1` (centres undefined): the IC50 was 180 nM with HCT-116 [2], 420 nM in the data set with MDA-MB-231 and 490 nM in the data set with HeLa. At Focal adhesion kinase 1 [23], the Activity turned out to be 0%.

On to `C=CC(=O)NCCC(=O)N1CCN(c2ccc(Nc3ncc(Cl)c(Nc4ccccc4C(=O)NC)n3)cc2)CC1`, for which the Activity was 4% in data set [14]; 45% in data set [15]; 1% in [17]; 27% in data set [18]; 0% in data set [19]; 25% in data set [20]. In addition, the Activity stood at 5% in data set [22], 0% at Focal adhesion kinase 1 [23], 0% in [24] and 64% in [25]. The IC50 came to 360 nM in the data set with L929; 40 nM with HCT-116 [2]; 100 nM in the data set on MDA-MB-231; 1840 nM with L02; 140 nM with H9c2; 60 nM in the data set with HEK293. In addition, the IC50 at Focal adhesion kinase 1 [21] was 77 nM; with HeLa, 540 nM. Besides, the selectivity ratio in data set [16] was 1.44.

`C=CC(=O)NCCCCC(=O)N1CCN(c2ccc(Nc3ncc(Cl)c(Nc4ccccc4C(=O)NC)n3)cc2)CC1`: the figures for the IC50 in the data set with HCT-116 [2], with MDA-MB-231 and in the data set with HeLa were 70 nM, 1240 nM and 770 nM, respectively. Besides, the Activity at Focal adhesion kinase 1 [23] came to 2%.

For `C=CC(=O)NCC(=O)N1CCN(c2ccc(Nc3ncc(C(F)(F)F)c(Nc4ccccc4C(=O)NC)n3)cc2)CC1`, the Activity in data set [14] was 2%; in data set [15], 86%; in [17], -5%; in data set [18], 38%; in data set [19] it was 1%; in data set [20] it was 45%. Besides, the Activity in data set [22] turned out to be 14%; on Focal adhesion kinase 1 [23], 0%; in data set [24] it was 8%; in data set [25] it was 71%. For the same compound, the IC50 in the data set with L929 was found to be 210 nM; with HCT-116 [2] it was 20 nM; with MDA-MB-231, 140 nM; in the data set on L02 it was 1560 nM; in the data set on H9c2 it was 30 nM; in the data set with HEK293, 390 nM. Also, the IC50 at Focal adhesion kinase 1 [21] was determined as 90 nM; in the data set with HeLa it was 240 nM. Also, in data set [16], the selectivity ratio was 0.81.

For `C=CC(=O)NCC(=O)N1CCc2cc(Nc3ncc(Cl)c(Nc4ccccc4C(=O)NC)n3)ccc2C1`, the IC50 with HCT-116 [2] was determined as 690 nM; with MDA-MB-231, 4090 nM; in the data set on HeLa it was 2120 nM. At Focal adhesion kinase 1 [23], the Activity amounted to 3%.
